Data as given in PMC6136390, “Coptisine-induced inhibition of Helicobacter pylori: elucidation of specific mechanisms by probing urease active site and its maturation process” (Journal of Enzyme Inhibition and Medicinal Chemistry, 2018).
≈ marks a conversion by molar mass, not a printed value. Like-named read-outs stand apart in the source and are kept apart here.

Tests used:
urease = tested on: urease; set-up: method as in PMID 26669678; settings: cited from earlier work
H. pylori strains = assay: Minimal inhibitory concentration assay (agar dilution); type: cell-based, Helicobacter pylori; settings: Helicobacter pylori, NCTC11637; standard strain NCTC 11637, pH 7.2; read-out: MIC
Text: Fourteen H. pylori strains were used in this study. NCTC 11637 and NCTC 26695 strains were purchased from American Type Culture Collection. Sydney Strain-1 (SS1) was kindly provided by Prof. Richard Ferrero of Monash University, Australia. Clinical isolate ICDC 111001 was provided by Prof. Zhang Jian-zhong of the Chinese Center for Disease Control and Prevention, China. Ten clinical isolates (Hp1868, Hp1869, Hp1870, Hp1871, Hp1872, Hp1873, Hp1874, Hp1875, Hp1876, and Hp1877) were obtained from Renji Hospital, Shanghai Jiaotong University.
(§1) All strains were cultured in Columbia agar base containing 7% sheep blood at 37 °C in a micro-aerophilic environment (5% O2, 10% CO2, and 85% N2). After 3 days, H. pylori was scraped and suspended in phosphate buffered saline (PBS). Turbidimetry was employed to adjust the concentrations of different H. pylori strains (turbidity equivalent to 1.0 McFarland standard). Crude HPU was obtained according to the method described by Matsubara et al.[42]
In this study, different concentrations (12.5, 25, 50, and 100 μg/mL) of berberine, palmatine, epiberberine, jatrorrhizine, and coptisine were used to evaluate antimicrobial activity against the standard H. pylori strain NCTC 11637. The agar dilution method was then used to analyse the antibacterial effects of coptisine against two H. pylori standard strains (SS1 and NCTC 26695) and eleven clinical isolates (ICDC 111001, HP 1868, HP 1869, HP 1870, HP 1871, HP 1872, HP 1873, HP 1874, HP 1875, HP 1876, and HP 1877). In this assay, 100 μL of H. pylori suspension (McFarland = 1.0) was added to the test compound-containing or DMSO-containing (control) Columbia blood agar plate. CLR and MET were used as positive controls in this experiment. Minimum inhibitory concentration (MIC) was defined as the lowest concentration at which no strain growth was observed by visual examination after 3 days. This experiment was repeated twice.

H. pylori cells (SS1) = assay: pH shock experiment in vivo (urea-dependent survival of H. pylori); type: cell-based, Helicobacter pylori; settings: 30 min; for surviving bacteria, pH =1: 100 mM HCl pH 1, 5 mM urea; for surviving bacteria, pH =7.2: PBS pH 7.2, 5 mM urea; for inhibition at 100 µM: Helicobacter pylori, 0.5 h
Procedure: H. pylori cells (SS1) were harvested, and the concentration was adjusted to Mc = 4 with saline. Then, bacterial samples were mixed with AHA (positive control, 5 mM) or one of the five alkaloids from Rhizoma Coptidis (coptisine, berberine, jatrorrhizine, epiberberine, and palmatine) in 100 mM HCl (pH = 1) or PBS (pH = 7.2) at 37 °C with or without 5 mM urea. After 30 min of incubation, bacteria were collected by centrifugation at 2000g for 10 min and resuspended in the same volume of PBS. A dilution series (1:1–1:10000) was made from the samples, and the dilutions were plated on solid agar for 5 days to form single colony. Samples from urea-free wells were used as controls. Results are expressed as CFU/mL; the experiment was repeated in triplicate. Inhibition rate was calculated using the following equation: Inhibition rate = (Urea group bacterial mean − X group bacterial mean)/Urea group bacterial mean ×100%, where X represents each experimental group.

H. pylori urease (HPU) = molecular target: T1, H. pylori urease (HPU) (Helicobacter pylori, UniProt P69996); assay: Urease inhibition assay in vitro (modified Berthelot method); type: biochemical; settings: 20 min pre-incubation at 37 °C, 150 mM urea, pH 7.5; read-out: IC50 for HPU
T1 construct: Crude HPU was obtained according to the method described by Matsubara et al; endogenous in cells; host or cells: cultured Helicobacter pylori (strain not specified)
Procedure: as §1
This assay was performed using the modified Berthelot method (phenol-hypochlorite) in 96 well plates. At the beginning of each reaction, different concentrations of urease solution and 150 mM urea as a substrate were mixed in 20 mM HEPES buffer (pH 7.5) at 37 °C. After a 20-min reaction, urease activity was tested by measuring the concentration of ammonia produced by the reaction at 595 nm using the microplate reader (Thermo Fisher Multiskan FC, Instruments, Inc., USA) at ambient temperature. […] One unit (U) of urease activity was defined as the amount of urease required to catalyse 1 μmol urea per min. […]
Coptisine’s ability to inhibit urease activity was determined by measuring amounts of ammonia produced using the modified Berthelot method described above. […] Residual activity (RA %) for each assay was calculated using the following equation: RA % = (activity with inhibitors/activity without inhibitors) × 100%. […]

jack bean urease (JBU) = molecular target: T2, jack bean urease (JBU) (Canavalia ensiformis, UniProt P07374); assay: as above; type: biochemical; settings: 20 min pre-incubation at 37 °C, 150 mM urea, pH 7.5; read-out: IC50 for JBU
T2 construct: purchased Sigma Aldrich (Steineheim, Germany) type III (catalogue number not given)
Procedure: This assay was performed using the modified Berthelot method (phenol-hypochlorite) in 96 well plates. At the beginning of each reaction, different concentrations of urease solution and 150 mM urea as a substrate were mixed in 20 mM HEPES buffer (pH 7.5) at 37 °C. After a 20-min reaction, urease activity was tested by measuring the concentration of ammonia produced by the reaction at 595 nm using the microplate reader (Thermo Fisher Multiskan FC, Instruments, Inc., USA) at ambient temperature. […] One unit (U) of urease activity was defined as the amount of urease required to catalyse 1 μmol urea per min. These experiments were repeated in triplicate.
Coptisine’s ability to inhibit urease activity was determined by measuring amounts of ammonia produced using the modified Berthelot method described above. The assay mixture, which contained 200 μL of enzyme and 200 μL of coptisine solution (0.16–2.51 mM) in 200 μL of 20 mM HEPES buffer (pH 7.5), was incubated for 20 min at 37 °C in 96-well plates. The reaction was then initiated by adding urea solution (150 mM) to determine residual urease activity. AHA was used as a standard urease inhibitor. […] Residual activity (RA %) for each assay was calculated using the following equation: RA % = (activity with inhibitors/activity without inhibitors) × 100%. […]

[1] = 100 μM compound, pH 1, 5 mM urea
[2] = 100 μM compound, pH 7.2, 5 mM urea
[3] = 100 μM compound, pH 1, 5 mM urea, read-out: Inhibition rate, pH =1
[4] = 100 μM compound, pH 7.2, 5 mM urea, read-out: Inhibition rate, pH =7.2

T2 sequence (P07374 whole entry, looked up): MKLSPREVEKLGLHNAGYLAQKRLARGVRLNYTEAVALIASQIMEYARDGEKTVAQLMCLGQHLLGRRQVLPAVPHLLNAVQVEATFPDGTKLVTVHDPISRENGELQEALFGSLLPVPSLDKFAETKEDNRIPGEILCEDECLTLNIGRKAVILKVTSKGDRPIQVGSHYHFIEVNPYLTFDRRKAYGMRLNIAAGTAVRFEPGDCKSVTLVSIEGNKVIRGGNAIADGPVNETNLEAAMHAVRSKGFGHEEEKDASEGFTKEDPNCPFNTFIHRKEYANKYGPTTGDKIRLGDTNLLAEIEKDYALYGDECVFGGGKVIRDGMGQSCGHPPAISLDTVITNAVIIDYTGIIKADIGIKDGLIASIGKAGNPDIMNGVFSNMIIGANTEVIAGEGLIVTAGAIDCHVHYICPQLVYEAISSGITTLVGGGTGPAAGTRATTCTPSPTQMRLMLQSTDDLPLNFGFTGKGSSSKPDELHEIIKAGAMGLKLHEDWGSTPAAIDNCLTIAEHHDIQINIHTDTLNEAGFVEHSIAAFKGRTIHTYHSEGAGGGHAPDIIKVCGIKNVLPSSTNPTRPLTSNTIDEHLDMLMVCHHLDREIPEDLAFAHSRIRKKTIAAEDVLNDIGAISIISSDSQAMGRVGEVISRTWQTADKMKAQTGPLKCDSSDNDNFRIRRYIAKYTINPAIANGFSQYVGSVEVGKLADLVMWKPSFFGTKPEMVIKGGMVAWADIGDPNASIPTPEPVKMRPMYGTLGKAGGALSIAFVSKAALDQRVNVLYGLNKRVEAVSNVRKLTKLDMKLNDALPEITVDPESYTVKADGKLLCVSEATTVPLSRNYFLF
T1 sequence (P69996 whole entry): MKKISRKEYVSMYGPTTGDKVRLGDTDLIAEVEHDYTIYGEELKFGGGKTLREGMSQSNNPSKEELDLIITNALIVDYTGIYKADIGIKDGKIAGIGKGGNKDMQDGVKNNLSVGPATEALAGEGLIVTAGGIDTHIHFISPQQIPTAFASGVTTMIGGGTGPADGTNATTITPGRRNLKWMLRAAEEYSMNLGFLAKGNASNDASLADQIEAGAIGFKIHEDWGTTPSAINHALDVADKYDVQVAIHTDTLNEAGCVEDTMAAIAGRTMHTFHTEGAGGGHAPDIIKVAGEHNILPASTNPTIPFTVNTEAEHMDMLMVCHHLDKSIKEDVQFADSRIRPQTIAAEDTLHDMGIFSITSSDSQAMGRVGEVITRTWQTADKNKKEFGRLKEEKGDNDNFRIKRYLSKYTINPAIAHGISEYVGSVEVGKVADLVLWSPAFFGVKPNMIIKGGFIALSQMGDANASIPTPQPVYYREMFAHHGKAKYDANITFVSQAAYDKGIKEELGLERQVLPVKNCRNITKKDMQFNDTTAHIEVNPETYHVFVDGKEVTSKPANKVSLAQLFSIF
T1 sequence (P14916 whole entry, further chain): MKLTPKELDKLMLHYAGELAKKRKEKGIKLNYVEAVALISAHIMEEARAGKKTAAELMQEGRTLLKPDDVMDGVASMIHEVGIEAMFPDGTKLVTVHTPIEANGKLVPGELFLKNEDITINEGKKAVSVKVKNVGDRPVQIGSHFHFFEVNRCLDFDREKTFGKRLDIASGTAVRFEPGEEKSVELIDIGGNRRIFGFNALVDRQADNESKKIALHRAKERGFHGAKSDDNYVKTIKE

| Compound | inhibitory activity against urease (urease) | MIC (H. pylori strains) | surviving bacteria, pH =1 (H. pylori cells (SS1); 100 μM compound) | surviving bacteria, pH =7.2 (H. pylori cells (SS1); 100 μM compound) | Inhibition rate, pH =1 (H. pylori cells (SS1); [1]) | Inhibition rate, pH =7.2 (H. pylori cells (SS1); [2]) | inhibition at 100 µM (H. pylori cells (SS1); [3]) | inhibition at 100 µM (H. pylori cells (SS1); [4]) | IC50 (H. pylori urease (HPU)) | surviving bacteria, pH =1 (H. pylori cells (SS1); 5 mM compound) | surviving bacteria, pH =7.2 (H. pylori cells (SS1); 5 mM compound) | Inhibition rate, pH =1 (H. pylori cells (SS1); 5 mM compound, pH 1, 5 mM urea) | Inhibition rate, pH =7.2 (H. pylori cells (SS1); 5 mM compound, pH 7.2, 5 mM urea) | IC50 (jack bean urease (JBU)) |
| --- | --- | --- | --- | --- | --- | --- | --- | --- | --- | --- | --- | --- | --- | --- |
| COc1ccc2cc3[n+](cc2c1OC)CCc1cc2c(cc1-3)OCO2 [Berberine] | fails to show any inhibitory activity | 50 µg/mL | 587 ± 103 CFU/mL | 1.2 ± 0.4 ×10^4 CFU/mL | failed to inhibit | failed to inhibit | 0% | 0% | – | – | – | – | – | – |
| CC(=O)NO [Acetohydroxamic acid, reference compound] | – | – | – | – | – | – | – | – | 90 ± 10 µM | 0 ± 0 CFU/mL | 1.7 ± 0.4 ×10^4 CFU/mL | 100% | 0% | 20 ± 10 µM |
| CC[C@H]1OC(=O)[C@H](C)[C@@H](O[C@H]2C[C@@](C)(OC)[C@@H](O)[C@H](C)O2)[C@H](C)[C@@H](O[C@@H]2O[C@H](C)C[C@H](N(C)C)[C@H]2O)[C@](C)(OC)C[C@@H](C)C(=O)[C@H](C)[C@@H](O)[C@]1(C)O [CLR, Clarithromycin, reference compound] | – | 0.02 µg/mL (≈ 0.0267 µM) | – | – | – | – | – | – | – | – | – | – | – | – |
| Cc1ncc([N+](=O)[O-])n1CCO [MET, Metronidazole, reference compound] | – | 0.5 µg/mL (≈ 2.92 µM) | – | – | – | – | – | – | – | – | – | – | – | – |
| COc1cc2c(cc1O)CC[n+]1cc3c(OC)c(OC)ccc3cc1-2 [Jatrorrhizine] | – | 100 µg/mL | 552 ± 98 CFU/mL | 1.2 ± 0.3 ×10^4 CFU/mL | failed to inhibit | failed to inhibit | 0% | 0% | – | – | – | – | – | – |
| COc1cc2c(cc1OC)-c1cc3ccc(OC)c(OC)c3c[n+]1CC2 [Palmatine] | – | 100 µg/mL | 628 ± 110 CFU/mL | 1.2 ± 0.4 ×10^4 CFU/mL | failed to inhibit | failed to inhibit | 0% | 0% | – | – | – | – | – | – |
| COc1cc2c(cc1OC)-c1cc3ccc4c(c3c[n+]1CC2)OCO4 [Epiberberine] | – | 100 µg/mL | 481 ± 92 CFU/mL | 1.3 ± 0.3 ×10^4 CFU/mL | failed to inhibit | failed to inhibit | 0% | 0% | – | – | – | – | – | – |
